The values that follow come from patent publication US7098013B2, “Polypeptide having α-isomaltosyl-transferase activity” (Kabushiki Kaisha Hayashibara Seibutsu Kagaku Kenkyujo, priority 2000, dated 2006).

Experiment [1] deals with α-isomaltosyl-transferring enzyme. In words: Action of the purified N75 enzyme on saccharide substrates (saccharide composition by HPLC). The settings on record: for yield of cyclotetrasaccharide in dry basis from the substrate: summary of Table 6. The class given is biochemical, Bacillus globisporus N75. How it is done:
An aqueous solution containing 10 mM of glucose, 6-O-α-glucosylglucose (isomaltose), 6^2-O-α-glucosylmaltose (panose), 6^3-O-α-glucosylmaltotriose (isomaltosylmaltose), 6^4-O-αglucosylmaltotetraose, or 6^5-O-α-glucosylmaltopentaose was prepared as substrate solution. To each of the above substrate solutions was added two units/mM-substrate of the purified α-isomaltosyl-transferring enzyme specimen obtained in Experiment 3-2 and incubated at 30° C. and at pH 6.0 for 12 hours. After deionizing by conventional method, the resulting reaction solutions were measured for saccharide composition on HPLC, disclosed in Experiment 2-1.

For experiment [2] the test system is unchanged. Kind of experiment: Action of the purified C11 enzyme on saccharide substrates (saccharide composition by HPLC). As to conditions: for yield of cyclotetrasaccharide in dry basis from the substrate: summary of Table 3. The class given is biochemical, Bacillus globisporus C11. As for the experimental part: An aqueous solution containing 10 mM of glucose, 6-O-α-glucosylglucose (isomaltose), 6^2-O-α-glucosylmaltose (panose), 6^3-O-α-glucosylmaltotriose (isomaltosylmaltose), 6^4-O-α-glucosylmaltotetraose, or 6^5-O-α-glucosylmaltopentaose was prepared as substrate solution. To each of the above substrate solution was added two units/mM-substrate of the purified α-isomaltosyl-transferring enzyme specimen obtained in Experiment 1-2 and incubated at 30° C. and at pH 6.0 for 12 hours. After deionizing by conventional method, the resulting reaction solutions were measured for saccharide composition on HPLC using “MCI GEL CK04SS”, a column commercialized by Mitsubishi Chemical Industries, Ltd., Tokyo, Japan, at a column temperature of 80° C. and a flow rate of 0.4 ml/min of water, and using a detector “RI-8012”, a differential refractometer commercialized by Tosho Corporation, Tokyo, Japan.

For experiment [3], the system named is Bacillus globisporus N75. In words: Utilization of carbon source and acid formation, strain N75. Type of experiment: cell-based. The settings on record: carbon source. On the set-up: key: The symbol “+” means yes or positive. As for the experimental part: (§1) Physiological Properties> • (1) VP-test: Negative • (2) Indole formation: Negative • (3) Gas formation from nitric acid: Positive • (4) Hydrolysis of starch: Positive • (5) Formation of pigment: Forming no soluble pigment • (6) Urease: Positive • (7) Oxidase: Positive • (8) Catalase: Positive • (9) Growth conditions: Growing at a pH of 5.5–9.0 and a temperature of 10–35° C. • (10) Oxygen requirement: Aerobic • (11) Utilization of carbon source and acid formation

In experiment [4] the test system is Bacillus globisporus C11. Kind of experiment: Utilization of carbon source and acid formation, strain C11. Type of experiment: cell-based. More on the design: key: The symbol “+” means yes or positive. As to conditions: carbon source. As for the experimental part: as §1
The mark [5] stands for this setting: N75 enzyme 2 units/mM-substrate, 10 mM substrate, 30° C., pH 6.0, 12 hours.
Setting [6] is: C11 enzyme 2 units/mM-substrate, 10 mM substrate, 30° C., pH 6.0, 12 hours.

As for `O=C[C@H](O)[C@@H](O)[C@H](O)[C@H](O)CO[C@H]1O[C@H](CO)[C@@H](O)[C@H](O)[C@H]1O` [6-O-α-Glucosylglucose, 6-O-α-glucosylglucose], the “product formation from the substrate” value in experiment [1] (N75 enzyme) and in experiment [2] (C11 enzyme) was “No product was detected” throughout. For the same molecule, the “Content of the substrate itself (remaining) in the reaction mixture” value (“Content … (remaining) in the reaction mixture” for short) in experiment [1] (setting [5]) and in experiment [2] (setting [6]) was 100% throughout.
On to `OC[C@H]1O[C@@H](O[C@H]2[C@H](O)[C@@H](O)C(O)O[C@@H]2CO)[C@H](O)[C@@H](O)[C@H]1O` (some centres unmarked) [Lactose], for which, in experiment [3], the Acid formation result is “+” and the Utilization entry is “+”. Also, in experiment [4], the Acid formation result is “+” and the Utilization entry was “+”.
On to `OC[C@H]1O[C@@](CO)(O[C@H]2O[C@H](CO)[C@@H](O)[C@H](O)[C@H]2O)[C@@H](O)[C@@H]1O` [Sucrose], for which, in experiment [3], the Acid formation entry is on record as “+” and the Utilization result was “+”. Further, in experiment [4], the Acid formation result is reported as “+” and the Utilization result is reported as “+”.
Turning to `OC[C@H]1O[C@H](OC[C@H]2O[C@H](O[C@H]3[C@H](O)[C@@H](O)[C@@H](O[C@H]4[C@H](O)[C@@H](O)[C@@H](O[C@H]5[C@H](O)[C@@H](O)[C@@H](O[C@H]6[C@H](O)[C@@H](O)C(O)O[C@@H]6CO)O[C@@H]5CO)O[C@@H]4CO)O[C@@H]3CO)[C@H](O)[C@@H](O)[C@@H]2O)[C@H](O)[C@@H](O)[C@@H]1O` (stereo partly drawn) [6^5-O-α-Glucosylmaltopentaose, 6^5-O-α-glucosylmaltopentaose], in experiment [1] (setting [5]), the “Content of Cyclotetrasaccharide in the reaction mixture” value (“Content of Cyclotetrasaccharide” below) was 18.7%, the “Content of Isomaltose in the reaction mixture” value (from here on “Content of Isomaltose”) is 1.4%, the “Content of Maltotetraose in the reaction mixture” value came out at 66.6% and the “Content of others in the reaction mixture” value (“Content of others” for short) was 9.1%. Besides, the “Content … (remaining) in the reaction mixture” value in experiment [1] (setting [5]) is given as 4.2%. For the same molecule, the “yield of cyclotetrasaccharide in dry basis from the substrate” value (“yield of cyclotetrasaccharide” for short) in experiment [1] (N75 enzyme) came out at 18.7%. Further, in experiment [2] (setting [6]), the “Content of Cyclotetrasaccharide” value is 18.2%, the “Content of Isomaltose” value came to 1.6%, the “Content of Maltotetraose in the reaction mixture” value was 66.5% and the “Content of others” value came to 9.4%. Also, the “Content … (remaining) in the reaction mixture” value in experiment [2] (setting [6]) is on record as 4.3%. Moreover, the “yield of cyclotetrasaccharide” value in experiment [2] (C11 enzyme) was determined as 18.2%.
Turning to `OC[C@H]1O[C@H](OC[C@H]2O[C@H](O[C@H]3[C@H](O)[C@@H](O)[C@@H](O[C@H]4[C@H](O)[C@@H](O)[C@@H](O[C@H]5[C@H](O)[C@@H](O)C(O)O[C@@H]5CO)O[C@@H]4CO)O[C@@H]3CO)[C@H](O)[C@@H](O)[C@@H]2O)[C@H](O)[C@@H](O)[C@@H]1O` (stereo partly drawn) [6^4-O-α-Glucosylmaltotetraose, 6^4-O-α-glucosylmaltotetraose], in experiment [1] (setting [5]), the “Content of Cyclotetrasaccharide” value was determined as 25.8%, the “Content of Isomaltose” value was 1.5%, the “Content of Maltotriose in the reaction mixture” value was 60.9% and the “Content of others” value came out at 8.6%. For the same molecule, in experiment [1] (setting [5]), the “Content … (remaining) in the reaction mixture” value was 3.2%. Besides, in experiment [1] (N75 enzyme), the “yield of cyclotetrasaccharide” value was determined as 25.8%. Also, in experiment [2] (setting [6]), the “Content of Cyclotetrasaccharide” value is on record as 25.6%, the “Content of Isomaltose” value is 1.9%, the “Content of Maltotriose in the reaction mixture” value is listed as 60.7% and the “Content of others” value is on record as 8.4%. In experiment [2] (setting [6]), the “Content … (remaining) in the reaction mixture” value is 3.4%. The “yield of cyclotetrasaccharide” value in experiment [2] (C11 enzyme) worked out at 25.6%.
For the molecule `OC[C@H]1O[C@H](OC[C@H]2O[C@H](O[C@H]3[C@H](O)[C@@H](O)[C@@H](O[C@H]4[C@H](O)[C@@H](O)C(O)O[C@@H]4CO)O[C@@H]3CO)[C@H](O)[C@@H](O)[C@@H]2O)[C@H](O)[C@@H](O)[C@@H]1O` (stereo partly drawn) [6^3-O-α-Glucosylmaltotriose, 6^3-O-α-glucosylmaltotriose], in experiment [1] (setting [5]), the “Content of Cyclotetrasaccharide” value is reported as 30.9%, the “Content of Isomaltose” value is reported as 1.9%, the “Content of Maltose in the reaction mixture” value is 50.3% and the “Content of others” value worked out at 12.4%. For the same molecule, in experiment [1] (setting [5]), the “Content … (remaining) in the reaction mixture” value came to 4.5%. Also, the “yield of cyclotetrasaccharide” value in experiment [1] (N75 enzyme) worked out at 30.9%. Besides, in experiment [2] (setting [6]), the “Content of Cyclotetrasaccharide” value was 30.8%, the “Content of Isomaltose” value was determined as 2.0%, the “Content of Maltose in the reaction mixture” value was found to be 50.6% and the “Content of others” value was found to be 12.4%. For the same molecule, the “Content … (remaining) in the reaction mixture” value in experiment [2] (setting [6]) is listed as 4.2%. Besides, the “yield of cyclotetrasaccharide” value in experiment [2] (C11 enzyme) amounted to 30.8%.
For `OC[C@H]1O[C@H](OC[C@H]2O[C@H](O[C@H]3[C@H](O)[C@@H](O)C(O)O[C@@H]3CO)[C@H](O)[C@@H](O)[C@@H]2O)[C@H](O)[C@@H](O)[C@@H]1O` (stereo partly drawn) [6^2-O-α-Glucosylmaltose, 6^2-O-α-glucosylmaltose], in experiment [1] (setting [5]), the “Content of Cyclotetrasaccharide” value was determined as 43.2%, the “Content of Glucose in the reaction mixture” value came out at 31.8%, the “Content of Isomaltose” value was 2.0% and the “Content of Isomaltosylpanose in the reaction mixture” value came to 6.5%. Also, in experiment [1] (setting [5]), the “Content of Isomaltosypanoside in the reaction mixture” value came to 2.4%, the “Content of others” value turned out to be 9.7% and the “Content … (remaining) in the reaction mixture” value is listed as 4.4%. For the same molecule, the “yield of cyclotetrasaccharide” value in experiment [1] (N75 enzyme) was 43.2%. Besides, in experiment [2] (setting [6]), the “Content of Cyclotetrasaccharide” value amounted to 43.5%, the “Content of Glucose in the reaction mixture” value turned out to be 32.2%, the “Content of Isomaltose” value turned out to be 2.1% and the “Content of Isomaltosylpanose in the reaction mixture” value is 4.8%. Moreover, in experiment [2] (setting [6]), the “Content of Isomaltosypanoside in the reaction mixture” value was determined as 1.8%, the “Content of others” value came out at 11.0% and the “Content … (remaining) in the reaction mixture” value stood at 4.6%. Besides, the “yield of cyclotetrasaccharide” value in experiment [2] (C11 enzyme) was 43.5%.
With `OCC(O)CO` [Glycerol], in experiment [3], the Acid formation result is listed as “+” and the Utilization entry was “+”. In experiment [4], the Acid formation entry is recorded as “+” and the Utilization entry is reported as “+”.
